How the values were obtained:
TNFα = assay: LPS-induced TNFα expression/secretion by PBMC, ELISA; format: cell-based, human; conditions: taurolidine 100 μg/ml, 4 h
Experimental: FIG. 3A and FIG. 3B are graphs depicting taurolidine inhibition of LPS-induced alpha […] (TNFα) expression by monocytic cells as determined by assay procedures. FIG. 3A represents MM6 cells; FIG. 3B represents PBMC. The cells were induced with LPS (hatched bars: 100 ng/ml LPS in RPMI+10% BCS; solid bars: 10 ng/ml in AIM-V+0.01% BCS) in the presence of varying concentrations of taurolidine. After four hours, cell supernatants were collected for TNFα ELISA. Data are expressed as percent of TNFα levels measured in cell cultures treated with LPS alone (no taurolidine or vehicle). Experiments were performed with duplicate samples and were repeated at least three times. Values shown in FIG. 3A are from a representative experiment. Values shown in FIG. 3B are mean±SEM of three experiments.
Human peripheral blood mononuclear cells (PBMC) were isolated from heparinized blood by centrifugation using Histopaque as per manufacturer's instructions. The isolated PBMC were suspended in RPMI supplemented with 10% BCS and were used in experiments immediately thereafter. As determined by flow cytometry, PBMC were typically 11±2% monocytes and 80±13% lymphocytes, with the remaining cytometric events consistent in size with platelets and cell aggregates. […]

tissue factor (TF) = assay: LPS-induced tissue factor (TF) expression in MM6 cells, ELISA; format: cell-based, human; conditions: for inhibition of LPS-induced TF expression: 4 h
Experimental: FIG. 2A represents MM6 cells; FIG. 2B represents PBMC. The cells were induced with LPS (hatched bars: 100 ng/ml LPS in RPMI supplemented with 10% BCS (RPMI+10% BCS); solid bars: 10 ng/ml in AIM-V+0.01% BCS) in the presence of varying concentrations of taurolidine,or with a dilution of the vehicle equivalent to that given to cells receiving 100 μg/ml taurolidine. After four hours, cells were collected and lysates were prepared for TF ELISA. Data are expressed as percent of TF antigen measured in cells treated with LPS alone (no taurolidine or vehicle). Experiments were performed with duplicate samples and were repeated at least three times. Values shown are mean±SEM of all experiments.
All cells were cultured in a 5% CO2 atmosphere at 37° C. MM6 cells were grown in RPMI supplemented with 10% BCS, 2 mM L-glutamine, and 50 μg/ml gentamicin (RPMI+10% BCS). In some experiments, MM6 cells were rinsed once with HBSS without Ca^++ or Mg^++ and once with AIM-V before finally being resuspended in AIM-V supplemented with 0.01% BCS (AIM-V+0.01% BCS). […] AIM-V was supplemented with a low amount of BCS (0.01%) in order to provide a source of LPS-binding protein, which enhances the response of monocytic cells to LPS. […] HL-60, REH, and Jurkat were cultured in RPMI supplemented with 10% heat inactivated fetal bovine serum (FBS), 2 mM L-glutamine, and 50 μg/ml gentamicin. ECV304 were cultured in M199 supplemented with 10% FBS, mM L-glutamine, and 50 μg/ml gentamicin. GM5387 was cultured in MEM supplemented with 20% FBS, 2 mM L-glutamine, and 50 μg/ml gentamicin.
For induction of TF or TNFα expression, MM6 cells or PBMC were cultured either in RPMI supplemented with 10% BCS or in AIM-V+0.01% BCS, and stimulated by adding LPS to final concentrations of 10 to 100 ng/ml. […] Except as noted, taurolidine and LPS were added to the cell cultures simultaneously. For TF determination, cells and culture media together were treated by adding Triton X-100 (1% final) and EDTA (7 mmol/L final), and the resulting lysates assayed by ELISA. […] For TNFα determination, cells were removed by centrifugation for 5 min at 250×g, and the supernatants were assayed by ELISA.

For O=S1(=O)CCN(CN2CCS(=O)(=O)NC2)CN1 [taurolidine, 4,4'-methylenebis(perhydro-1,2,4-thiadiazin 1,1-dioxide)], the “inhibition of LPS-induced TNFα secretion” value (TNFα) was “maximally inhibit TNFα secretion”, the “inhibition of LPS-induced TF expression” value (tissue factor (TF); MM6, taurolidine 50 μg/ml or higher) was “completely blocked” and the “inhibition of LPS-induced TF expression” value (tissue factor (TF); MM6, taurolidine 10 or 25 μg/ml) was “little or no effect”. The “induction of TF expression (summary)” value (tissue factor (TF); PBMC, MM6 and granulocytes, LPS-induced) was “blocked”.

From patent US6303596A, “Use of taurolidine for treatment of leukemias” (priority 2000, dated 2001)
